Laboratory results as given in patent US20150289512A1, “METHOD FOR PROMOTING PLANT GROWTH” (SUMITOMO CHEMICAL COMPANY, LIMITED, priority 2012, published 2015).

What was measured:
Type in all cases: in vivo
Nicotiana benthamiana [1] = assay: Test Example 5: growth promotion under low-temperature stress by hydroponics of Nicotiana benthamiana, 1 ppm; conditions: 1 ppm in medium, low-temperature stress 7 days at 1.5±1.0° C., green leaf area 3 days later, equation (1)
Procedure: (§1) Test for Evaluating Growth Promotion Under Low-Temperature Stress by Hydroponics of Nicotiana benthamiana
A DMSO solution, which contained one of the compounds 2, 4, 5, 6, 11, 12, 17, 20, 21, 28, 30, 34, 36, 37, 51, 52, 53, 55, 56, 58, 59, 60, 64, 65, 66, 68, 69, 70, 74, 77, 82, 83, 84, 86 and 87 of the present invention at a concentration of 1,000 ppm, was prepared. The DMSO solution of the compound of the present invention was added at a volume ratio of 1/1,000 to the Murashige•Scoog medium of a ½-fold concentration (a medium containing 2.3 g of mixed salts for the Murashige•Scoog medium (manufactured by Wako Pure Chemical Industries, Ltd.), 200 mg of Myo-inositol (manufactured by Sigma-Aldrich Co. LLC.), 2 mg of nicotinic acid (manufactured by Wako Pure Chemical Industries, Ltd.), 2 mg of pyridoxine hydrochloride (manufactured by Wako Pure Chemical Industries, Ltd.), 20 mg of thiamine hydrochloride (manufactured by Wako Pure Chemical Industries, Ltd.), 20 g of sucrose (manufactured by Wako Pure Chemical Industries, Ltd.), and 1 g of MES (manufactured by DOJINDO LABORATORIES) per 1 L of water and having pH adjusted to 5.8), thereby preparing a medium containing the compound of the present invention at a concentration of 1 ppm.
(§2) Seeds of Nicotiana benthamiana were seeded in the 5 μL of the medium and cultured overnight at 22° C. Thereafter, 45 μL of the medium containing the compound of the present invention at a concentration of 1 ppm was added thereto, and the seeds are cultured for 7 days at 22° C., an illuminance of 4,000 lux, and a day length of 16 hours, and the nursery plants raised from the Nicotiana benthamiana were treated with the compound. Moreover, instead of the above medium, a test plot, which was obtained by performing the same treatment by using a medium prepared by adding DMSO to the Murashige•Scoog medium of ½-fold concentration at a volume ratio of 1/1,000, was used as a control plot not treated with the compound.
(§3) The nursery plants of the Nicotiana benthamiana treated with the compound were subjected to low-temperature treatment by being cultivated for 7 days at 1.5±1.0° C., an illuminance of 2,000 lux, and a day length of 16 hours.
The nursery plants of the Nicotiana benthamiana having undergone the low-temperature stress treatment were cultured for 3 days at 22° C., an illuminance of 4,000 lux, and a day length of 16 hours. Thereafter, the area of green leaf was quantified by Scanalyzer HTS (manufactured by LemnaTec GmbH). Moreover, the value of the control plot not treated with the compound that had not yet been subjected to the low-temperature stress treatment was measured in the same manner. A value of a relative leaf area was calculated based on the following equation (1), and if the value of a relative leaf area was 5 or greater, the compound was evaluated to have a mitigating effect. As a result of the evaluation, it was confirmed that when the plant was treated with one of the compounds 2, 4, 5, 6, 11, 12, 17, 20, 21, 28, 30, 34, 36, 37, 51, 52, 53, 55, 56, 58, 59, 60, 64, 65, 66, 68, 69, 70, 74, 77, 82, 83, 84, 86 and 87 of the present invention at 1 ppm, the value of a relative leaf area was 5 or greater, compared to the area of green leaf of the control plot not treated with compound. Accordingly, it was confirmed that the treatment using the compound of the present invention brings about a growth promotion effect.
(§4) Relative leaf area=100*(a green area of a plot treated with the compound of the present invention−a green area of a control plot not treated with the compound of the present invention)/(a green area of a control plot not treated with the compound of the present invention that has not yet been subjected to low-temperature stress treatment−a green area of a control plot not treated with the compound of the present invention) Equation (1): […]

Nicotiana benthamiana [2] = assay: Test Example 6: growth promotion under low-temperature stress by hydroponics of Nicotiana benthamiana, 0.1 ppm; conditions: 0.1 ppm in medium, low-temperature stress 7 days at 1.5±1.0° C., green leaf area 3 days later, equation (1)
Procedure: as §1
A DMSO solution, which contained one of the compounds 3, 7, 14, 16, 36, 39, 43, 45, 50, 52, 53, 54, 56, 57, 62, 63, 64, 65, 68, 69, 70, 71, 73, 74, 76, 77, 79, 80, 81, 84, 85, 86 and 87 of the present invention at a concentration of 100 ppm, was prepared. The DMSO solution of the compound of the present invention was added at a volume ratio of 1/1,000 to the Murashige•Scoog medium of a ½-fold concentration for the Murashige•Scoog medium (a medium containing 2.3 g of mixed salts (manufactured by Wako Pure Chemical Industries, Ltd.), 200 mg of Myo-inositol (manufactured by Sigma-Aldrich Co. LLC.), 2 mg of nicotinic acid (manufactured by Wako Pure Chemical Industries, Ltd.), 2 mg of pyridoxine hydrochloride (manufactured by Wako Pure Chemical Industries, Ltd.), 20 mg of thiamine hydrochloride (manufactured by Wako Pure Chemical Industries, Ltd.), 20 g of sucrose (manufactured by Wako Pure Chemical Industries, Ltd.), and 1 g of MES (manufactured by DOJINDO LABORATORIES) per 1 L of water and having pH adjusted to 5.8), thereby preparing a medium containing the compound of the present invention at a concentration of 0.1 ppm.
as §2, with “concentration of 0.1 ppm was” for “concentration of 1 ppm was”, “seeds are cultivated for 7” for “seeds are cultured for 7”, “the above medium a test” for “the above medium, a test”
as §3
The nursery plants of the Nicotiana benthamiana having undergone the low-temperature stress treatment were cultivated for 3 days at 22° C., an illuminance of 4,000 lux, and a day length of 16 hours. Thereafter, the area of green leaf was quantified by Scanalyzer HTS (manufactured by LemnaTec GmbH). Moreover, the value of the control plot not treated with the compound that had not yet been subjected to the low-temperature stress treatment was measured in the same manner. A value of a relative leaf area was calculated based on the following equation (1), and if the value of a relative leaf area was 5 or greater, the compound was evaluated to have a mitigating effect. As a result of the evaluation, it was confirmed that when the plant was treated with one of the compounds 3, 7, 14, 16, 36, 39, 43, 45, 50, 52, 53, 54, 56, 57, 62, 63, 64, 65, 68, 69, 70, 71, 73, 74, 76, 77, 79, 80, 81, 84, 85, 86 and 87 of the present invention at 0.1 ppm, the value of a relative leaf area was 5 or greater, compared to the area of green leaf of the control plot not treated with compound. Accordingly, it was confirmed that the treatment using the compound of the present invention brings about a growth promotion effect.
as §4, with “treatment−green” for “treatment−a green”

[3] = test system: Rice (variety: Nipponbare); assay: Test Example 3: promotion of root growth by hydroponics of rice, 0.1 ppm; conditions: Oryza sativa, hydroponic solution containing the test compound at 0.1 ppm, average of 4 or 5 individuals, read-out: Relative value of length of seminal root (%-untreated control plot)
Procedure: (§5) Test for Evaluating Promotion of Root Growth by Hydroponics of Rice
(§6) Rice (variety: Nipponbare)
A DMSO solution, which contained one of the compounds 2, 6, 7, 16, 20, 33, 34, 36, 37, 38, 40, 41, 43, 44, 45, 46, 47, 48, 50, 51, 52, 53, 54, 55, 56, 61, 64, 67, 68, 71, 72, 73, 74, 75, 76, 79, 80, 81 and 83 of the present invention at a concentration of 1,000 ppm, was added to Hoagland hydroponic solution (Hoagland and Arnon, California Agricultural Experiment Station 1950 Circular 347 pp. 34) of ¼-fold concentration at a volume ratio of 1/10,000. In this manner, hydroponic solutions containing one of the compounds 2, 6, 7, 16, 20, 33, 34, 36, 37, 38, 40, 41, 43, 44, 45, 46, 47, 48, 50, 51, 52, 53, 54, 55, 56, 61, 64, 67, 68, 71, 72, 73, 74, 75, 76, 79, 80, 81 and 83 of the present invention at 0.1 ppm were prepared respectively. As an untreated control plot, a hydroponic solution obtained by adding DMSO to Hoagland hydroponic solution of ¼-fold concentration at a volume ratio of 1/10,000 was used.
(§7) Rice seeds were soaked in a 1% aqueous sodium hypochlorite solution for 10 minutes, then soaked in a 70% ethanol solution for surface sterilization, and then washed with distilled water. The sterilized seeds were soaked in a hydroponic solution containing the test compound described above at 0.1 ppm and incubated in a dark place for 3 days at 28° C. to perform treatment for hastening germination.
(§8) Thereafter, 30 ml of hydroponic solution containing the test compound at 0.1 ppm was dispensed in a plastic tube (diameter of 20 mm×height of 113 mm) of which the side was covered with cardboard to block light. A float prepared using a styrene board and vinyl mesh was floated, and the rice seeds that had undergone the treatment for hastening germination were placed on the float on the surface of the hydroponic solution. The seeds were cultivated for 3 days at 26° C., an illuminance of 4,000 lux of the top surface of the tube, a humidity of 50%, and a day length of 16 hours.
(§9) The nursery plants of rice obtained after culturing were measured in terms of the length of seminal root by using WinRHIZO system (manufactured by Regent Instruments Inc). For each test plot, an average of the measured values of the seminal root of 4 or 5 individuals was determined.

[4] = test system: Rice (variety: Nipponbare); assay: Test Example 1: promotion of root growth by hydroponics of rice, 10 ppm; conditions: Oryza sativa, hydroponic solution containing the test compound at 10 ppm, average of 4 or 5 individuals, read-out: Relative value of length of seminal root (%-untreated control plot)
Procedure: as §5, §6
as §7, with “10” for “0.1”
as §8, with “10” for “0.1”
as §9

Compound: COC(=O)c1oc2ccccc2c1NC(=O)c1ccccc1 [Compound 59]
- relative leaf area (% of untreated control) at 1 ppm (Nicotiana benthamiana [1]): ≥ 5%

Compound: COC(=O)c1oc2ccccc2c1NC=O [Compound 81]
- relative leaf area (% of untreated control) at 0.1 ppm (Nicotiana benthamiana [2]): ≥ 5%
- change in vivo at 0.1 ppm [3]: > 5%
- change in vivo at 10 ppm [4]: > 5%

Compound: COC(=O)c1oc2ccc(C(F)(F)F)cc2c1NC(=O)c1ccccc1 [Compound 66]
- relative leaf area (% of untreated control) at 1 ppm (Nicotiana benthamiana [1]): ≥ 5%

Compound: COC(=O)c1oc2ccccc2c1N [Compound 57]
- relative leaf area (% of untreated control) at 0.1 ppm (Nicotiana benthamiana [2]): ≥ 5%
- change in vivo at 10 ppm [4]: > 5%
